{"source": "patent US6242478A", "about": "“Five member ring sulfenate esters and thiosulfinate esters” (Wake Forest University, priority 1999, dated 2001)", "key": {"[1]": {"tested_on": "GST alpha mRNA in BNL.CL2 cells", "assay": "GST alpha mRNA induction, Northern blot", "assay_type": "cell-based, mouse", "details": "for GST α induction (mRNA): 80 μM, Northern blot; for GST α induction (mRNA) / activation at 100 µM: 24 hours; for activation at 100 µM: Mus musculus, BNL CL.2, BNL.CL2 cells, 100 micromolar, read-out: increase in GST alpha mRNA levels", "description": "(§1) BNL.CL2 cells were treated with Oltipraz, compound 121 described above, and compound 123 described above. All compounds were applied to the cells at 100 micromolar concentration for 24 hours.\n(§2) Cells were exposed to compounds at a final concentration of 80 μM for 24 hours. RNA was isolated and analyzed by Northern blotting for the expression of the indicated genes. Control cells were incubated with vehicle alone (0.4% DMSO).\n(§3) Northern blot: Treatment of BNL.CL2 cells with 100 μM Oltipraz, ALH-556, and ALH-562, ALH-561, ED 13.4, ED 14.6, DCF 070, ALH-490\n(§4) BNL.CL2 cells (normal mouse embryonic liver cell line) were plated at ~3×10^5 cells/ml, grown for 16-24 hours, and treated with 0 μM and 100 μM Oltipraz, ALH-556 (121), and ALH-562 (123) for 24 hours. All three compounds were dissolved in DMSO and the final DMSO concentration present in all treatment conditions was 0.2%. BNL.CL2 cells were harvested by trypsinization and total RNA was isolated using the Trizol reagent (Gibco BRL) according to the manufacturer's procedures. 15 μg of RNA were run on a 1.1% agarose/6.6% formaldehyde gel and transferred overnight onto nitrocellulose membranes by capillary transfer using 20×SSC as transfer buffer. Subsequent to RNA transfer, the nitrocellulose membrane was baked at 80° C. for 2 hours. RNA was analyzed using a radiolabeled mouse ferritin H and human GST-α c-DNA. A human β-actin probe was used as an internal standard. The c-DNA probes were labeled with [α^32 P]dCTP by a random prime labeling. Hybridization of the c-DNA probes to the nitrocellulose membrane was performed at 68° C. for 60 minutes using the Quick-Hyb solution (Stratagene). Membranes were subjected to phosphoimager analysis after hybridization."}, "[2]": {"tested_on": "DT-diaphorase (NQO1) mRNA", "assay": "NQO1 mRNA induction, Northern blot", "assay_type": "cell-based, mouse", "details": "80 μM, 24 hours", "description": "as §1, §2, §3, §4"}, "[3]": {"tested_on": "Ferritin H mRNA", "assay": "Ferritin H mRNA induction, Northern blot", "assay_type": "cell-based, mouse", "details": "80 μM, 24 hours", "description": "as §1, §2, §3, §4"}, "[4]": {"tested_on": "GST alpha mRNA in BNL.CL2 cells", "assay": "GST alpha mRNA induction, Northern blot", "assay_type": "cell-based, mouse", "details": "48 and 72h post treatment, in words"}, "[5]": {"tested_on": "HIV-1RF", "details": "cited from earlier work"}, "[6]": {"tested_on": "CEM-SS cells", "details": "cited from earlier work"}, "[7]": {"tested_on": "HIV-1ADA", "details": "fresh human monocyte/macrophage cultures, cited from earlier work"}, "[8]": {"tested_on": "fresh human monocyte/macrophage cultures", "details": "toxicity; cited from earlier work"}, "[9]": {"tested_on": "NCp7 protein", "details": "cited from earlier work; for ejection of zinc from NCp7: in words"}, "[10]": {"biological_target": "T1, NCp7 (Human immunodeficiency virus type 1 group M subtype B, UniProt P12493)", "T1 construct": "HIV-1 nucleocapsid protein (NCp7)", "details": "50 μM, reference compounds; cited from earlier work"}, "[11]": {"tested_on": "enzymatic activities of the viral replication cycle", "details": "in words; cited from earlier work"}, "[12]": {"tested_on": "poly (ADP-ribose) polymerase (PARP)", "details": "in words; cited from earlier work"}, "[13]": {"tested_on": "Sp1", "details": "in words; cited from earlier work"}, "[14]": {"tested_on": "GATA-1", "details": "in words; cited from earlier work"}, "[15]": {"tested_on": "HeLa nuclear extract", "details": "CMV promoter, duck HBV sequence; cited from earlier work"}, "[16]": {"tested_on": "GST", "details": "rats; cited from earlier work"}, "[17]": {"tested_on": "GST", "details": "mice; cited from earlier work"}, "[18]": {"details": "Dimitrov et al., 1992; cited from earlier work"}, "[19]": {"tested_on": "HIV-1", "details": "Prochaska et al., 1993; cited from earlier work"}, "[20]": {"tested_on": "phase II enzymes", "details": "in words; cited from earlier work"}}, "note": "Read-outs that look alike come from different tables or passages of the source."}
{"smiles": "CC1=C(C2=CCCCC2)S(=O)OC1", "note": "(centres unmarked) [compound 123, 4-methyl-5-cyclohexenyl-1,2-oxathiol-4-en-1-yl oxide]", "values": [{"measurement": "GST α induction (mRNA)", "setting": "[1]", "value": "+"}, {"measurement": "activation at 100 µM", "setting": "[1]", "value": 430, "unit": "%"}, {"measurement": "inducing activity (GST, NQO1 and Ferritin H)", "setting": "[1]; in words", "value": "high levels of inducing activity"}, {"measurement": "NQO1 induction (mRNA)", "setting": "[2]", "value": "+"}, {"measurement": "Ferritin H induction (mRNA)", "setting": "[3]", "value": "+"}, {"measurement": "time course of GST levels", "setting": "[4]", "value": "slight additional increases in GST levels"}]}
{"smiles": "O=S1(=O)C[C@H](O)[C@H](O)CS1", "note": "(relative stereo) [compound 8]", "values": [{"measurement": "EC50", "setting": "[5]; CEM-SS cells, HIV-1RF, read-out: XTT assay EC50", "value": 6.6, "unit": "µM"}, {"measurement": "activity against HIV-1 in XTT-based cytoprotection assay", "setting": "[5]; in words", "value": "active"}, {"measurement": "EC50", "setting": "[5]; two fold excess of glutathione (GSH), read-out: XTT assay EC50 with GSH", "value": 64.2, "unit": "µM"}, {"measurement": "IC50", "setting": "[6]; toxicity, CEM-SS cells, read-out: XTT assay IC50", "value": 184, "unit": "µM"}, {"measurement": "IC50", "setting": "[6]; two fold excess of glutathione (GSH), read-out: XTT assay IC50 with GSH", "value": "> 200", "unit": "µM"}, {"measurement": "EC50", "setting": "[7]; HIV-1ADA", "value": 8, "unit": "µM"}, {"measurement": "activity against replication of monocytotropic HIV-1ADA", "setting": "[7]; in words", "value": "active"}, {"measurement": "IC50", "setting": "[8]", "value": "> 100", "unit": "µM"}, {"measurement": "ejection of zinc from NCp7", "setting": "[9]", "value": "promoted ejection of zinc"}, {"measurement": "ejection of zinc from NCp7", "setting": "[9]; listed as NSC 624151 (8)", "value": "found to promote zinc ejection from the NCp7 protein"}, {"measurement": "TSQ NCp7 Assay", "setting": "[9]; unit not given", "value": 17}, {"measurement": "NCp7 Trp37 Assay, % Decrease RFU/30 min, without GSH", "setting": "[10]", "value": 17, "unit": "% Decrease RFU/30 min"}, {"measurement": "effect on enzymatic activities of the viral replication cycle", "setting": "[11]", "value": "no other observable effect"}, {"measurement": "effect on PARP activity", "setting": "[12]", "value": "does not affect"}, {"measurement": "specific binding of Sp1 to DNA target", "setting": "[13]", "value": "does not affect poly (ADP-ribose) polymerase (PARP) activity or alter specific binding"}, {"measurement": "specific binding of GATA-1 to DNA target", "setting": "[14]", "value": "does not affect poly (ADP-ribose) polymerase (PARP) activity or alter specific binding"}, {"measurement": "in vitro transcription", "setting": "[15]", "value": "did not significantly alter"}]}
{"smiles": "Cc1c(-c2cnccn2)ssc1=S", "note": "[Oltipraz]", "values": [{"measurement": "GST α induction (mRNA)", "setting": "[1]", "value": "+"}, {"measurement": "activation at 100 µM", "setting": "[1]", "value": 340, "unit": "%"}, {"measurement": "NQO1 induction (mRNA)", "setting": "[2]", "value": "+"}, {"measurement": "Ferritin H induction (mRNA)", "setting": "[3]", "value": "+"}, {"measurement": "elevation of GST levels", "setting": "[16]", "value": "elevate levels of GST"}, {"measurement": "elevation of GST levels", "setting": "[17]", "value": "elevate levels of GST"}, {"measurement": "toxicities", "setting": "[18]", "value": "photosensitivity/heat intolerance, GI effects, and neurologic toxicities"}, {"measurement": "prevention of HIV-1 replication", "setting": "[19]", "value": "prevent HIV-1 replication"}, {"measurement": "induction of phase I / phase II enzymes", "setting": "[20]", "value": "monofunctional inducers"}]}
